From publication PMC5954141, “Structure-guided Discovery of Dual-recognition Chemibodies” (Scientific Reports, 2018) come the findings set out here.

Molecules are shown by their SMILES. pIC50: −log10 of the molar value.

T1 sequence (P14740 whole entry): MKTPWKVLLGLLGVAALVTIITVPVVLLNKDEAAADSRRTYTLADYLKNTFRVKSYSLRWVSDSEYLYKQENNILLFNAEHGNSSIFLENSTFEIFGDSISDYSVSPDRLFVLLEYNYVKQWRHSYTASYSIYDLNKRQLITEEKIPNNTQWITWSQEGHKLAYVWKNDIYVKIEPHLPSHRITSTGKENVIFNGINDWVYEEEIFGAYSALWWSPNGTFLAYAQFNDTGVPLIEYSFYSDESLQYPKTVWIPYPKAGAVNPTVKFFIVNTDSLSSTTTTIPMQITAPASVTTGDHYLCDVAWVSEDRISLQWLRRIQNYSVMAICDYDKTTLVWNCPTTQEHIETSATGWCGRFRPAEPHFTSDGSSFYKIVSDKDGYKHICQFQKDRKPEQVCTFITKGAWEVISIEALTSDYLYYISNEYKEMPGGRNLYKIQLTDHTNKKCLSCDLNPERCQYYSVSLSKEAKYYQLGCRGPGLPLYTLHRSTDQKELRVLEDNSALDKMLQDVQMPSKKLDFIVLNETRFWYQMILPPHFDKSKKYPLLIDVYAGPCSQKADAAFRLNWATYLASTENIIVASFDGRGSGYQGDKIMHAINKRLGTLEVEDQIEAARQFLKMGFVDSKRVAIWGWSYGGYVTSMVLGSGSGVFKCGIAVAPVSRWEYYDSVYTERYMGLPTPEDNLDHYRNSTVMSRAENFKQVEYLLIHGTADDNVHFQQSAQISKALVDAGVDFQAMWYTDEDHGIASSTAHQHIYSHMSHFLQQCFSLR

The first assay addresses T1, DPP-IV enzyme (Rattus norvegicus, UniProt P14740).
T1 construct: made in house
Nature of the assay: DPP-IV dipeptide (Ala-Pro-AFC) cleavage inhibition, fluorescent assay. Conditions: Table S6; Ala-Pro-AFC at 10 µM, one-hour incubation, triplicate; read-out: measured IC50's. Format: biochemical. The protocol:
DPP-IV catalytic activity and inhibition of dipeptide cleavage was measured using a fluorescent assay performed at room temperature in 384-well, black polypropylene microplates. […] Assay data shown in Fig. 3 were performed with a one-hour incubation time. The data were fit to the four-parameter model using a Levenburg–Marquardt nonlinear regression algorithm. Figure 3b,c were generated using GraphPad Prism v6.
Rat DPP-IV enzyme and Fab mutant proteins were expressed and purified as previously described. […] For x-ray diffraction data collection, crystals were transferred into well solution with 30% (w/v) ethylene glycol and then flash frozen in liquid nitrogen.
Broadly, the pIC50 is the negative decadic logarithm of the IC50, by convention in mol/L. Take `CC(=O)NCCOCCOCCOCCNC(=O)CN1CCN(C(=O)C[C@H](N)Cc2cc(F)c(F)cc2F)CC1` [compound 6 (n = 3)]: the pIC50 was 6.85. The same measure, in the same setting: for `CC(=O)NCCOCCOCCOCCOCCNC(=O)CN1CCN(C(=O)C[C@H](N)Cc2cc(F)c(F)cc2F)CC1` [compound 6 (n = 4)] the value was 7.00; for `CC(=O)NCCOCCOCCOCCOCCOCCNC(=O)CN1CCN(C(=O)C[C@H](N)Cc2cc(F)c(F)cc2F)CC1` [compound 6 (n = 5)], 6.84. With `CC(=O)NCCOCCOCCOCCOCCOCCOCCNC(=O)CN1CCN(C(=O)C[C@H](N)Cc2cc(F)c(F)cc2F)CC1` [compound 6 (n = 6)], the negative logarithm of the IC50 (pIC50) was 6.92. As for `CC(=O)NCCOCCOCCOCCOCCOCCOCCOCCNC(=O)CN1CCN(C(=O)C[C@H](N)Cc2cc(F)c(F)cc2F)CC1` [compound 6 (n = 7)], the pIC50 is 6.87. For the compound `CC(=O)NCCOCCOCCOCCOCCOCCOCCOCCOCCNC(=O)CN1CCN(C(=O)C[C@H](N)Cc2cc(F)c(F)cc2F)CC1` [compound 6 (n = 8)], the negative logarithm of the IC50 (pIC50) was 6.91. For `CC(=O)NCCOCCOCCOCCOCCOCCOCCOCCOCCOCCOCCNC(=O)CN1CCN(C(=O)C[C@H](N)Cc2cc(F)c(F)cc2F)CC1` [compound 6 (n = 10)], the negative-log IC50 (pIC50) is 6.82. For the compound `CC(=O)NCCOCCOCCOCCOCCOCCOCCOCCOCCOCCOCCOCCNC(=O)CN1CCN(C(=O)C[C@H](N)Cc2cc(F)c(F)cc2F)CC1` [compound 6 (n = 11)], the pIC50 is 6.80.

The same assay, now with this note: dipeptide substrate cleavage; read-out: DPP-IV IC50.
Take `CNC(=O)CN1CCN(C(=O)C[C@H](N)Cc2cc(F)c(F)cc2F)CC1.Cl` [compound 2, (R)-2-(4-(3-amino-4-(2,4,5-trifluorophenyl)butanoyl)piperazin-1-yl)-N-methylacetamide hydrochloride]: the pIC50 was 6.89. Take `COCCOCCOCCOCCNC(=O)CN1CCN(C(=O)C[C@H](N)Cc2cc(F)c(F)cc2F)CC1` [compound 4 (n = 3)]: the negative logarithm of the IC50 (pIC50) was 6.98.

Take `COCCOCCOCCOCCOCCOCCOCCOCCNC(=O)CN1CCN(C(=O)C[C@H](N)Cc2cc(F)c(F)cc2F)CC1` [compound 4 (n = 7)]: the pIC50 is 7.15.

Still in this assay, the particulars now being: same experimental conditions.
`CNC(=O)CN1CCN(C(=O)C[C@H](N)Cc2cc(F)c(F)cc2F)CC1.Cl` [compound 2, (R)-2-(4-(3-amino-4-(2,4,5-trifluorophenyl)butanoyl)piperazin-1-yl)-N-methylacetamide hydrochloride]: the “potency loss as compared with sitagliptin” value is reported as “seven-fold”.
